Source: paper PMC6387077, “Interaction of Halictine-Related Antimicrobial Peptides with Membrane Models” (International Journal of Molecular Sciences, 2019)

Columns and labels:
Bacillus subtilis = conditions: ref [19]; cited from earlier work
Excerpt: (§1) Table 1 Amino acid sequences, physico-chemical and biological properties (µH is the hydrophobic moment, and H represents the mean hydrophobicity, calculated according to [27]), of the studied antibacterial HAL-1 peptides. Data were taken from ref. [19]. Point mutations with respect to the natural HAL-1 peptide are underlined. The Schiffer−Edmundson wheel projection of the HAL-1 and its analogs | column: Antimicrobial Activity MIC (µM) / B.^1

Staphylococcus aureus = conditions: ref [19]; cited from earlier work
Excerpt: as §1, with “S.^2” for “B.^1”

Escherichia coli = conditions: ref [19]; cited from earlier work
Excerpt: as §1, with “E.^3” for “B.^1”

Pseudomonas aeruginosa = conditions: ref [19]; cited from earlier work
Excerpt: as §1, with “P.^4” for “B.^1”

red blood cells = conditions: hemolytic activity against red blood cells; ref [19]; cited from earlier work
Excerpt: as §1, with “Hemolytic LC50” for “Antimicrobial Activity MIC”, “(µM)” for “(µM) / B.^1”

[1] = Concentration dependence of ECD and VCD spectra (aggregation); type: physicochemical; conditions: aqueous solution, 100 mg/mL peptide, room temperature, ECD and VCD read-out
Excerpt: In order to clarify the discrepancy between the results of the peptide conformational analyses obtained by ECD and IR, we have complemented our study by a measurement of concentration dependencies of ECD spectra of the HAL-1 peptides (Figure 9). […] In order to determine the peptide conformational change induced by its high concentration more specifically, we have performed measurements of VCD spectra of the peptides (Figure 10) using the highest peptide concentration studied by ECD (i.e., 100 mg/mL). VCD measurements supported the results of ECD analysis, confirming that at high peptide concentration, HAL-1 and its analogs HAL-1/6, HAL-1/10, and HAL-1/20 spontaneously form the α-helical structure, indicated by a negative/positive VCD couplet in the amide I region. On the contrary, the HAL-1/2 analog (Figure 10b) seems to undergo a distinct conformational change, forming highly organized β-sheet aggregates (β-sheet fibrils) characterized by an intense five-peak VCD signal with the (−/−/+/−/−) sign pattern in the amide I and II region. […]
Concentration dependence was measured for all the peptides at the given concentrations: 0.1, 10, and 100 mg/mL. […] The α-helical fraction was calculated using a two-state model. […]
VCD spectra were measured on a dual source and dual photo-elastic modulator [67] […]

Sequence	Antimicrobial Activity MIC B. (Bacillus subtilis) [µM]	Antimicrobial Activity MIC S. (Staphylococcus aureus) [µM]	Antimicrobial Activity MIC E. (Escherichia coli) [µM]	Antimicrobial Activity MIC P. (Pseudomonas aeruginosa) [µM]	Hemolytic LC50 (red blood cells) [µM]	Aggregation at high peptide concentration [1]
GMWSKILGHLIK [HAL-1/6, HAL-1 analog, Arg12 replaced by Lys]	1.3	15.8	7.2	65.0	132	–
GMWKKILGKLIR [HAL-1/10, HAL-1 analog, Ser4 and His9 substituted by Lys]	0.8	15.0	2.3	13.1	>200	–
GMWSKILGHLIR [HAL-1]	0.8	7.7	3.8	45.0	82	–
GKWSKILGKLIR [HAL-1/20, HAL-1 analog, Met2 and His9 substituted by Lys]	1.7	21.7	2.3	–	>200	–
GMWSKILGPLIR [HAL-1/2, HAL-1 analog, His9 substituted by Pro]	3.6	>100	30.0	>100	>200	form β-aggregates
